According to patent US11084830B2, “Five-membered non aromatic ring-pyrimidine HIV-1 reverse transcriptase inhibitor, preparation method therefor, and uses thereof” (priority 2018, dated 2021):

Tests used:
[1] = test system: mock-infected MT-4 cells; test: Cytotoxicity in mock-infected MT-4 cells, MTT method; type: cell-based; settings: human, 5 days
Protocol: (§1) The MTT method was described briefly as follows: stock solutions (10×final concentration) of test compounds were added in 25 μL volumes to two series of triplicate wells in order to allow simultaneous evaluation of the effects on mock- and HIV-infected cells. Using a Biomek 3000 robot (Beckman Instruments, Fullerton, Calif.), serial five-fold dilutions of the test compounds (final 200 μL volume per well) were made directly in flat-bottomed 96-well microtiter trays, including untreated control HIV-1 and mock-infected cell samples for each sample. HIV-1 (IIIB) and mutant HIV-1 strains stock (50 μL at 100-300 CCID50) or culture medium was added to either the infected or mock-infected wells of the microtiter tray. Mock-infected cells were used to evaluate the effect of test compounds on uninfected cells to assess cytotoxicity. Exponentially growing MT-4 cells were centrifuged for 5 min at 1000 rpm and the supernatant was discarded. The MT-4 cells were resuspended at 6×10^5 cells/mL, and 50 μL aliquots were transferred to the microtiter tray wells. At five days after infection, the viability of mock- and HIV-infected cells was determined spectrophotometrically by means of MTT assay.
(§2) The MTT assay is based on the reduction of yellow-colored MTT (Acros Organics, Geel, Belgium) by mitochondrial dehydrogenase of metabolically active cells to form a blue-purple formazan that can be measured spectrophotometrically. The absorbances were read in an eight-channel computer-controlled photometer, at the wavelengths of 540 and 690 nm. All data were calculated using the median optical density (OD) value of three wells.

[2] = as above; type: cell-based; settings: human, CC50
Protocol: as §1, §2

[3] = test system: NNRTI-resistant double-mutant strain K103N+Y181C (RES056); test: microbe, parasite or virus in culture; type: cell-based, HIV-1; settings: for EC50: Human immunodeficiency virus 1, MT4, read-out: EC50 RES056; for SI RES056: selectivity index, ratio of CC50/EC50, strain RES056
Protocol: (§3) Antiviral potency was evaluated in MT-4 cell cultures infected with WT HIV-1 strain (IllB) as well as cells infected with a panel of NNRTI-resistant double-mutant strain K103N+Y181C (RES056).
(§4) Selected compounds were screened for inhibitory activity against HIV-1 using MTT method as describe previously by Christophe. Pannecouque et al. Nat. Protoc. […] And in vitro anti-HIV activity of compounds were supported by Rega Institute for Medical Research. The MTT assay is based on the reduction of the yellow colored 3-(4,5-dimethylthiazol-2-yl)-2,5-diphenyltetrazolium bromide (MTT) by mitochondrial dehydrogenases of metabolically active cells to a blue formazan which can be measured spectrophotometrically. Tested optical density served as an indicator for live cells, and survival rate can be concluded by testing the optical density of 540 nm and 690 nm. MT-4 cells infected with HIV-1 can only survive for 5 to 7 days without any treatment, but when HIV-1 inhibitors were added, they can protect MT-4 cell from cytopathic. Serial solution of compounds was added to MT-4 cells after infected with HIV-1, MTT method was used to detect the survival rate after culture for 5 to 7 days.
(§5) (1) MT-4 cells infected with HIV-1 viral strains (IIIB, Y181C/K103N) were provided by Rega Institute for Medical Research, Katholieke Universiteit Leuven, Belgium.
(§6) (3) Preparation of compounds: Stock solutions (10×final concentration) of test compounds is diluted with double distilled H2O for 5 folds and 5 concentrations of one compound are prepared.
(§7) (5) Test method (MTT method): Serial five-fold dilutions of test compounds were added to cultured MT-4 cells infected with HIV-1, after 5 to 7 days, MTT was added and cultured for a few hours.
as §1, with “HIV-1 (IIIB) and mutant HIV-1 strains stock (50 μL at 100-300 CCID50) or culture medium was added to either the infected or mock-infected wells of the microtiter tray.” left out, “The MT-4 cells were resuspended at 6×10^5 cells/mL, and 50 μL aliquots were transferred to the microtiter tray wells.” left out
as §2

[4] = test system: WT HIV-1 strain (IIIB); test: Anti-HIV-1 activity in MT-4 cells, MTT method, wild-type strain IIIB; type: cell-based; settings: for SI IIIB: selectivity index, ratio of CC50/EC50, strain IIIB
Protocol: as §3, §4, §5, §6, §7
as §1, with “HIV-1 (IIIB) and mutant HIV-1 strains stock (50 μL at 100-300 CCID50) or culture medium was added to either the infected or mock-infected wells of the microtiter tray.” left out, “The MT-4 cells were resuspended at 6×10^5 cells/mL, and 50 μL aliquots were transferred to the microtiter tray wells.” left out
as §2

Row | Compound | CC50 [1] [nM] | CC50 at 5 days [2] [nM] | EC50 [3] [nM] | SI RES056 [3] | EC50 ([4]; Human immunodeficiency virus 1, IIIB, MT4, read-out: EC50 IIIB) [nM] | fold more potent than ETR ([4]; EC50 against HIV-1 IIIB compared with ETR) | SI IIIB [4]
1 | Cc1cc(C#N)cc(C)c1Oc1nc(NC2CCN(Cc3ccc(C(N)=O)cc3)CC2)nc2c1COC2 [Compound B2, 4-((4-((4-(4-cyano-2,6-dimethylphenoxy)-5,7-dihydrofuro[3,4-d]pyrimidin-2-yl)amino)piperidin-1-yl)methyl)benzamide] | > 250000 | > 200000 | 41.5 ± 9.9 | >6039 | 2 | – | –
2 | Cc1cc(C#N)cc(C)c1Oc1nc(NC2CCN(Cc3ccc(S(N)(=O)=O)cc3)CC2)nc2c1CCC2 [Compound C1, 4-((4-((4-(4-cyano-2,6-dimethylphenoxy)-6,7-dihydro-5H-cyclopenta[d]pyrimidin-2-yl)amino)piperidin-1-yl)methyl)benzenesulfonamide] | > 234000 | > 200000 | 25.8 | >9091 | – | about 4.6 fold | –
3 | Cc1cc(C#N)cc(C)c1Oc1nc(NC2CCN(Cc3ccc(S(N)(=O)=O)cc3)CC2)nc2c1CSC2 [Compound D1, 4-((4-((4-(4-cyano-2,6-dimethylphenoxy)-5,7-dihydrothieno[3,4-d]pyrimidin-2-yl)amino)piperidin-1-yl)methyl)benzenesulfonamide] | 26600 ± 1960 | – | 734 ± 337 | 36 | – | – | 715
4 | Cc1cc(C#N)cc(C)c1Oc1nc(NC2CCN(Cc3ccc(S(C)(=O)=O)cc3)CC2)nc2c1CSC2 [Compound D2, 3,5-dimethyl-4-((2-((1-(4-(methylsulfonyl)benzyl)piperidin-4-yl)amino)-5,7-dihydrothieno[3,4-d]pyrimidin-4-yl)oxy)benzonitrile] | 45300 ± 31100 | – | 170 ± 32 | 266 | – | – | 11690
